According to ChEMBL document CHEMBL3102829, “Resveratrol oligomers inhibit biofilm formation of Escherichia coli O157:H7 and Pseudomonas aeruginosa” (J Nat Prod, 2014):
The source made the active and inactive calls. No cut-off for these calls is given here.

What was measured:
Escherichia coli [1] = test: Antibiofilm activity against Escherichia coli O157:H7 assessed as induction of motB gene expression at 20 ug/ml after 5 hrs by qRT-PCR analysis; type: functional, organism-based
Escherichia coli [2] = test: Antibiofilm activity against Escherichia coli O157:H7 assessed as induction of fliA gene expression at 20 ug/ml after 5 hrs by qRT-PCR analysis; type: functional, organism-based
Pseudomonas aeruginosa [3] = test: Antibiofilm activity against Pseudomonas aeruginosa PA14 after 24 hrs by GFP-based confocal laser microscopy; type: functional, organism-based
Pseudomonas aeruginosa [4] = test: Antibiofilm activity against Pseudomonas aeruginosa PA14 after 24 hrs by spectrophotometry; type: functional, organism-based
Escherichia coli [5] = test: Antibiofilm activity against Escherichia coli O157:H7 after 24 hrs by spectrophotometry; type: functional, organism-based
Escherichia coli [6] = test: Antimicrobial activity against Escherichia coli O157:H7 assessed as growth inhibition up to 50 ug/ml by spectrophotometry; type: organism-based; conditions: in vivo
Escherichia coli [7] = test: Antibiofilm activity against Escherichia coli O157:H7 assessed as induction of qseB gene expression at 20 ug/ml after 5 hrs by qRT-PCR analysis; type: functional, organism-based
Escherichia coli [8] = test: Antibiofilm activity against Escherichia coli O157:H7 assessed as induction of flhD gene expression at 20 ug/ml after 5 hrs by qRT-PCR analysis; type: functional, organism-based
Escherichia coli [9] = test: Antibiofilm activity against Escherichia coli O157:H7 assessed as repression of csgC expression at 20 ug/ml after 5 hrs by qRT-PCR analysis; type: functional, organism-based
Pseudomonas aeruginosa [10] = test: Antibiofilm activity against Pseudomonas aeruginosa PA14 assessed as growth inhibition at 50 ug/ml by spectrophotometry; type: functional, organism-based
Escherichia coli [11] = test: Antibiofilm activity against Escherichia coli O157:H7 after 24 hrs by GFP-based confocal laser microscopy; type: functional, organism-based
Escherichia coli [12] = test: Antibiofilm activity against Escherichia coli O157:H7 assessed as repression of csgF expression at 20 ug/ml after 5 hrs by qRT-PCR analysis; type: functional, organism-based
Escherichia coli [13] = test: Antibiofilm activity against Escherichia coli O157:H7 assessed as repression of csgB expression at 20 ug/ml after 5 hrs by qRT-PCR analysis; type: functional, organism-based
Escherichia coli [14] = test: Antibiofilm activity against Escherichia coli O157:H7 assessed as repression of csgA expression at 20 ug/ml after 5 hrs by qRT-PCR analysis; type: functional, organism-based
Escherichia coli [15] = test: Antibiofilm activity against Escherichia coli O157:H7 at 5 ug/ml after 24 hrs by spectrophotometry; type: functional; conditions: O157:H7, 24 h
Escherichia coli [16] = test: Antibiofilm activity against Escherichia coli O157:H7 assessed as repression of csgG expression at 20 ug/ml after 5 hrs by qRT-PCR analysis; type: functional, organism-based
Escherichia coli [17] = test: Reduction in fimbriae production in Escherichia coli O157:H7 biofilm grown on nylon filter at 20 ug/ml after 24 hrs by scanning electron microscopy; type: functional, organism-based
Escherichia coli [18] = test: Antibiofilm activity against Escherichia coli O157:H7 assessed as effect on rrsG expression at 20 ug/ml after 5 hrs by qRT-PCR analysis; type: functional, organism-based
Escherichia coli [19] = test: Antibiofilm activity against Escherichia coli O157:H7 assessed as repression of csgD expression at 20 ug/ml after 5 hrs by qRT-PCR analysis; type: functional, organism-based
Escherichia coli [20] = test: Antimicrobial activity against Escherichia coli O157:H7 by spectrophotometry; type: organism-based; conditions: in vivo

In the case of Oc1ccc([C@H]2c3c(O)cc(O)cc3[C@H]3c4c(cc(O)cc4[C@@H]2c2cc(/C=C/c4cc(O)cc5c4[C@H](c4cc(O)cc(O)c4)[C@@H](c4ccc(O)cc4)O5)ccc2O)O[C@@H]3c2ccc(O)cc2)cc1 [VITISIN A], the Activity (Escherichia coli [1]) is reported as “inactive”, the Activity (Escherichia coli [2]) is reported as “inactive” and the inhibition (Pseudomonas aeruginosa [3]) is reported as “Active”. The inhibition (Pseudomonas aeruginosa [4]) was “Dose-dependent effect”, the inhibition (Escherichia coli [5]) was “inactive” and the Activity (Escherichia coli [6]) was “Non-toxic”. For the same compound, the Activity (Escherichia coli [7]) was “inactive” and the Activity (Escherichia coli [8]) was “inactive”.
In the case of Oc1ccc([C@H]2Oc3cc(O)cc(/C=C/c4ccc5c(c4)[C@@H](c4cc(O)cc6c4[C@H](c4cc(O)cc(O)c4)[C@@H](c4ccc(O)cc4)O6)[C@H](c4ccc(O)cc4)O5)c3[C@@H]2c2cc(O)cc(O)c2)cc1 [VITISIN B], the Activity (Escherichia coli [1]) is reported as “Active”, the Activity (Escherichia coli [9]) is reported as “Active” and the Activity (Escherichia coli [2]) is reported as “Active”. The inhibition (Pseudomonas aeruginosa [3]) was “Active”, the inhibition (Pseudomonas aeruginosa [10]) was “inactive” and the inhibition (Escherichia coli [11]) was “Dose-dependent effect”. The Activity (Escherichia coli [12]) was “Active”, the Activity (Escherichia coli [13]) was “Active” and the Activity (Escherichia coli [14]) was “Active”. For the same compound, the inhibition (Pseudomonas aeruginosa [4]) was “Dose-dependent effect”, the inhibition (Escherichia coli [5]) was “Dose-dependent effect” and the Activity (Escherichia coli [6]) was “Non-toxic”. For the same compound, the inhibition at 5 µg/mL (Escherichia coli [15]) was > 90%, the Activity (Escherichia coli [7]) was “Active” and the Activity (Escherichia coli [16]) was “Active”. The Activity (Escherichia coli [17]) was “Active”, the Activity (Escherichia coli [18]) was “inactive” and the Activity (Escherichia coli [8]) was “Active”. The Activity (Escherichia coli [19]) was “Active”.
Oc1ccc(/C=C/c2cc(O)cc(O)c2)cc1 [RESVERATROL] was tested, and the Activity (Escherichia coli [9]) was “Active”, the inhibition (Pseudomonas aeruginosa [3]) was “Active” and the Activity (Escherichia coli [12]) was “Active”. For the same compound, the Activity (Escherichia coli [13]) was “Active”, the Activity (Escherichia coli [14]) was “Active” and the inhibition (Pseudomonas aeruginosa [4]) was “Active”. The inhibition (Escherichia coli [5]) was “Dose-dependent effect”, the Activity (Escherichia coli [16]) was “Active” and the Activity (Escherichia coli [17]) was “Active”. The Activity (Escherichia coli [18]) was “inactive”, the Activity (Escherichia coli [19]) was “Active” and the “growth inhibition (GI)” value (Escherichia coli [20]) was “Dose-dependent effect”.
With Oc1ccc(/C=C/c2cc(O)cc3c2[C@@H](c2cc(O)cc(O)c2)[C@H](c2ccc(O)cc2)O3)cc1 [EPSILON-VINIFERIN] the Activity (Escherichia coli [1]) was “inactive”, the Activity (Escherichia coli [9]) was “Active” and the Activity (Escherichia coli [2]) was “inactive”. The Activity (Escherichia coli [12]) was “Active”, the Activity (Escherichia coli [13]) was “Active” and the Activity (Escherichia coli [14]) was “Active”. The inhibition (Escherichia coli [5]) was “Dose-dependent effect”, the Activity (Escherichia coli [7]) was “inactive” and the Activity (Escherichia coli [16]) was “Active”. For the same compound, the Activity (Escherichia coli [17]) was “Active”, the Activity (Escherichia coli [18]) was “inactive” and the Activity (Escherichia coli [8]) was “inactive”. For the same compound, the Activity (Escherichia coli [19]) was “Active” and the “growth inhibition (GI)” value (Escherichia coli [20]) was “Dose-dependent effect”.
Oc1ccc([C@@H]2c3c(O)cc(O)cc3[C@@H]3c4c(cc(O)c5c4[C@@H]2[C@@H](c2ccc(O)cc2)[C@@H]5c2cc(O)cc(O)c2)O[C@@H]3c2ccc(O)cc2)cc1 (relative stereo) was tested, and the Activity (Escherichia coli [1]) was “inactive”, the Activity (Escherichia coli [2]) was “inactive” and the inhibition (Pseudomonas aeruginosa [3]) was “Active”. The inhibition (Escherichia coli [11]) was “Dose-dependent effect”, the inhibition (Pseudomonas aeruginosa [4]) was “Dose-dependent effect” and the inhibition (Escherichia coli [5]) was “Dose-dependent effect”. For the same compound, the Activity (Escherichia coli [7]) was “inactive” and the Activity (Escherichia coli [8]) was “inactive”.
Oc1ccc([C@H]2c3c(O)cc(O)cc3[C@@H]3c4c(cc(O)c5c4[C@@H]2[C@@H](c2ccc(O)cc2)[C@@H]5c2cc(O)cc(O)c2)O[C@@H]3c2ccc(O)cc2)cc1 (relative stereo) was tested, and the Activity (Escherichia coli [1]) was “inactive”, the Activity (Escherichia coli [9]) was “Active” and the Activity (Escherichia coli [2]) was “inactive”. The inhibition (Pseudomonas aeruginosa [3]) was “Active”, the inhibition (Escherichia coli [11]) was “Dose-dependent effect” and the Activity (Escherichia coli [12]) was “Active”. For the same compound, the Activity (Escherichia coli [13]) was “Active”, the Activity (Escherichia coli [14]) was “Active” and the inhibition (Pseudomonas aeruginosa [4]) was “Dose-dependent effect”. For the same compound, the inhibition (Escherichia coli [5]) was “Dose-dependent effect”, the Activity (Escherichia coli [7]) was “inactive” and the Activity (Escherichia coli [16]) was “Active”. For the same compound, the Activity (Escherichia coli [18]) was “inactive”, the Activity (Escherichia coli [8]) was “inactive” and the Activity (Escherichia coli [19]) was “Active”.
